{"source": "patent US8440725B2", "about": "“Synergistic preparations based on mixtures of glycerol ether with aromatic alcohol for controlling mycobacteria” (Air Liquide Sante (International), priority 2002, dated 2013)", "tested_on": "Mycobacterium terrae (ATCC15755)", "test": "Quantitative suspension test Mycobacterium terrae without load, room temperature", "assay_type": "cell-based", "conditions": "0.1% added to 30% strength ethanol, exposure time 60 minutes", "procedure": "Various aqueous disinfectants were tested with respect to their activity towards Mycobacterium terrae, cell count 1 to 3×10^9 in a quantitative suspension test without load. The following reduction factors were measured, a reduction factor>5 corresponding to a sufficient Tb activity. For this various amounts of ethanol were added to aqueous active compound solutions and after exposure for 15, 30 and 60 minutes were tested. For testing the tuberculocidal activity, the quantitative suspension test Mycobacterium terrae (ATCC15755) was used in accordance with the Deutsche Gesellscaft für Hygiene and Mikrobiologie [German Society for Hygiene and Microbiology] of 30 Apr. 1997 (Hyg. Med. 22, 1997, issue 6, pages 278ff.).", "data": [{"smiles": "CCCCC(CC)COCC(O)CO", "note": "(stereo not shown) [SC 50, 1-(2-ethylhexyl) glycerol ether]", "values": [{"measurement": "Tb activity (reduction factor>5 = sufficient)", "value": "sufficiently Tb active"}]}]}
